The term pIC50 denotes the IC50 on a negative log10 scale, so that one unit is a factor of ten.

The results in this text go back to patent US12162878B2 (HINOVA PHARMACEUTICALS INC., priority 2018, dated 2024).

pIC50: −log10 of the molar value. Like-named read-outs stand apart in the source and are kept apart here.

Common to all, as to type: cell-based, human
The subject of one experiment is BT474 cells. The experiment can be described thus: Inhibition of proliferation of BT474 cells (CCK-8). The conditions noted are these: for pIC50: Homo sapiens, BT-474, 144 h, 6 days, CCK-8. The method, then: • BT474 cell line (Cell Bank of Chinese Academy of Sciences, TCHu143) • FBS (Gibco, Cat. No. 10099-141) • 0.01M PBS (Biosharp, Cat. No. 162262) • RIPM1640 (Hyclone, Cat. No. 308090.01) • Penicillin-Streptomycin (Hyclone, Cat. No. SV30010) • Cell counting kit-8 (Signalway Antibody, Cat. No. CP002) • DMSO (Sigma, Cat. No. D5879) • Centrifuge Tube, 15 ml (Excell Bio, Cat. No. CS015-0001) • Cell Culture Dish (Excell Bio, Cat. No. CS016-0128) • 96-well cell culture cluster (Corning, Cat. No. 3599) 3. Experimental Method
1) BT474 cells were subcultured in cell culture media, and the cells in good growth condition were seeded in a 96-well plate, 80 μL for each well, thus the number of cells per well was 1500, then the plate was cultured overnight in a 37° C., 5% CO2 cell incubator.
2) The drug was prepared with dimethyl sulfoxide (DMSO) as a 10 mM stock solution. Prior to use, the solution was diluted 3 times with DMSO, and then diluted with a 3-fold gradient to obtain 9 concentration gradients. Then, each concentration of the compound was further diluted 200 times with the culture media (to ensure that DMSO concentration in the culture system was 0.1%), 2 repeat wells for each concentration. The diluted solution of each compound (20 μL) was added to the cell culture well (with a final concentration of 10 μM, 3.3 μM, […] and shaken gently for mixing. In addition, three negative control wells containing only cells and three blank control wells containing only culture medium (20 μL DMSO diluted 200 times with culture medium being added to six wells) were included.
(§1) (1) After culturing for 6 days, 10 μL CCK-8 was added to each well and cultured for additional 2.5 h in a 37° C., 5% CO2 cell incubator.
(§2) (2) The absorbance (OD value) at 450 nm was measured with a multifunctional microplate reader.
(§3) (3) The data was analyzed by the Dose-response-inhibition equation in the software GraphPad Prism6, and the IC50 value was obtained.

Another experiment concerns Vcap cells. The experiment can be described thus: Compound in combination with androgen receptor inhibitor HC-1119, proliferation of Vcap cells (CCK-8). The following applies: for pIC50: Homo sapiens, VCaP, 144 h, 6 days, read-out: IC50 for inhibition on the activity of Vcap; for effect of combination with HC-1119 on inhibitory action on Vcap cells (in words): in combination with HC-1119, Vcap cells. As for the experimental part: • Vcap cell line (Cell Bank of Chinese Academy of Sciences, TCHu220) • FBS (Gibco, Cat. No. 10099-141) • 0.01M PBS (Biosharp, Cat. No. 162262) • DMEM HIGH Glucose (Hyclone, Cat. No. SH30243.01) • Penicillin-Streptomycin (Hyclone, Cat. No. SV30010) • Cell counting kit-8 (Signalway Antibody, Cat. No. CP002) • DMSO (Sigma, Cat. No. D5879) • Centrifuge Tube, 15 ml (Excell Bio, Cat. No. CS015-0001) • Cell Culture Dish (Excell Bio, Cat. No. CS016-0128) • 96-well cell culture cluster (Corning, Cat. No. 3599) 2. Experimental Method
1) Vcap cells were subcultured in cell culture media, and the cells in good growth condition were seeded in a 96-well plate, 60 μL for each well, thus the number of cells per well was 10000, then the plate was cultured overnight in a 37° C., 5% CO2 cell incubator.
(§4) 2) The drug was prepared with dimethyl sulfoxide (DMSO) as a 10 mM stock solution. Prior to use, the solution was diluted 3 times with DMSO, and then diluted with a 3-fold gradient to obtain 9 concentration gradients. Then, each concentration of the compound was further diluted 200 times with the culture media (to ensure that DMSO concentration in the culture system was 0.1%), 2 repeat wells for each concentration. The diluted solution of each compound (20 μL) was added to the cell culture well (with a final concentration of 10 μM, 3.3 μM, 1.1 μM . . . ); while the solution of HC-1119 was diluted with culture media to the concentrations of 50 μM and […], respectively, and the diluted solution of HC-1119 was added to the corresponding cell culture well (with a final concentration of 10 μM, 1 μM), then shaken gently for mixing. In addition, three negative control wells containing only cells and three blank control wells containing only culture media (20 μL DMSO diluted 200 times with culture media being added to six wells) were included.
as §1, §2, §3

The next experiment concerns CWR22RV1 cells. The experiment can be described thus: Compound in combination with androgen receptor inhibitor HC-1119, proliferation of CWR22RV1 cells (CCK-8). The conditions noted are these: for pIC50: Homo sapiens, CWR22Rv1, 144 h, 6 days, read-out: IC50 for inhibition on the activity of CWR22RV1. The method, then:
• CWR22RV1 cell line (Cell Bank of Chinese Academy of Sciences, TCHu100) • FBS (Gibco, Cat. No. 10099-141) • 0.01M PBS (Biosharp, Cat. No. 162262) • RIPM1640 (Hyclone, Cat. No. 308090.01) • Penicillin-Streptomycin (Hyclone, Cat. No. SV30010) • Cell counting kit-8 (Signalway Antibody, Cat. No. CP002) • DMSO (Sigma, Cat. No. D5879) • Centrifuge Tube, 15 ml (Excell Bio, Cat. No. CS015-0001) • Cell Culture Dish, (Excell Bio, Cat. No. CS016-0128) • 96-well cell culture cluster (Corning, Cat. No. 3599) Experimental Method:
1) CWR22RV1 cells were subcultured in cell culture media, and the cells in good growth condition were seeded in a 96-well plate, 60 μL for each well, thus the number of cells per well was 2000, then the plate was cultured overnight in a 37° C., 5% CO2 cell incubator.
as §4, with “10 μM, 3 μM), then” for “10 μM, 1 μM), then”
as §1, §2, §3

Setting [1] is: in combination with 1 μM HC-1119, Vcap cells.
The mark [2] stands for this setting: in combination with 10 μM HC-1119, Vcap cells.

`[2H]C([2H])([2H])n1cc(-c2cc(NS(=O)(=O)CC)ccc2N2CCC3(CC2)CC3)c2cc[nH]c2c1=O` [Compound 41]: in the experiment on BT474 cells, the pIC50 was 6.48.
On to `[2H]C([2H])([2H])n1cc(-c2cc(S(=O)(=O)CC)ccc2N2CCC3(CC3)C2)c2cc[nH]c2c1=O` [Compound 55, 4-(5(ethylsulfonyl)-2-(5-aza-spiro[2.4]heptan-5-yl)phenyl)-6-trideuteromethyl-1H-pyrrolo[2,3-c]pyridin-7(6H)-one], for which, in the experiment on BT474 cells, the “inhibitory action on BT474 cells (in words)” value is given as “effective inhibitory action” and the pIC50 is 6.89.
Consider `[2H]C([2H])([2H])n1cc(-c2cc(S(C)(=O)=O)c(F)cc2N2CCC3(CC2)CC3(F)F)c2cc[nH]c2c1=O` [Compound 219, 4-(2-(1,1-difluoro-6-aza-spiro[2.5]octan-6-yl)-4-fluoro-5-(methylsulfonyl)phenyl)-6-trideuteromethyl-1H-pyrrolo[2,3-c]pyridin-7(6H)-one], for which the pIC50 was 7.75 with Vcap cells (compound alone, Vcap cells); 9.26 with Vcap cells (setting [1]); 9.74 with Vcap cells (setting [2]). In addition, in the experiment on Vcap cells, the “effect of combination with HC-1119 on inhibitory action on Vcap cells (in words)” value was “improve the inhibitory action”.
Take `[2H]C([2H])([2H])n1cc(-c2cc(S(C)(=O)=O)ccc2N2CCC3(CC2)CC3(F)F)c2cc[nH]c2c1=O` [Compound 184, 4-(2-(1,1-difluoro-6-aza-spiro[2.5]octan-6-yl)-5-(methylsulfonyl)phenyl)-6-trideuteromethyl-1H-pyrrolo[2,3-c]pyridin-7(6H)-one]: the pIC50 with Vcap cells (compound alone, Vcap cells) is 7.82; in the experiment with Vcap cells (setting [1]), 9.48; in the experiment on Vcap cells (setting [2]) it was 9.89; in the experiment on CWR22RV1 cells (compound alone, CWR22RV1 cells) it was 8.09; in the experiment on CWR22RV1 cells (in combination with 3 μM HC-1119, CWR22RV1 cells), 8.70; with CWR22RV1 cells (in combination with 10 μM HC-1119, CWR22RV1 cells), 8.82. For the same compound, the “effect of combination with HC-1119 on inhibitory action on Vcap cells (in words)” value with Vcap cells is reported as “improve the inhibitory action”. Also, in the experiment with CWR22RV1 cells (in combination with HC-1119, CWR22RV1 cells), the “effect of combination with HC-1119 on inhibitory action on CWR22RV1 cells (in words)” value was “improve the inhibitory action”.
